US4522946A, “Dioxy hexahydrobenzo[6,7]cyclohepta[1,2,3-de]isoquinoline derivatives useful as neuroleptic agents” (Ayerst, McKenna & Harrison, Inc., priority 1983, dated 1985)
Counter-ions that a name gives are not always drawn.

Assays:
[1] = tested on: tremorine-induced tremors in mice; assay: antagonism of tremorine-induced tremors (ITIT), lack of cataleptic activity; type: in vivo; settings: intraperitoneal, mg per kg body weight; for ED50: Mus musculus, ip, read-out: ITIT, ED50 (dose which caused a 50% inhibition of tremorine induced tremors)
[2] = tested on: conditioned avoidance response; assay: conditioned avoidance response test (CAR), neuroleptic action; type: in vivo; settings: intraperitoneal, mg per kg body weight; for ED50: ip, read-out: CAR, ED50 (dose which caused a 50% failure in avoidance response)
[3] = Sayers and Amsler 1977; cited from earlier work

With Br.CC[C@H]1c2c(O)c(O)cc3c2[C@H](CN1C)c1ccccc1CC3 (relative stereo) [Example 23, (3,12b-trans)-3-ethyl-2-methyl-1,2,3,7,8,12b-hexahydrobenzo[6,7]cyclohepta[1,2,3-de]isoquinoline-4,5-diol hydrobromide] the “ITIT, ED50 (dose which caused a 50% inhibition of tremorine induced tremors)” value [1] was 18 ± 7.6 mg/kg, i.p and the “CAR, ED50 (dose which caused a 50% failure in avoidance response)” value [2] was 1.5 ± 0.4 mg/kg, i.p.

CC[C@H]1c2cc(O)c(O)c3c2[C@@H](CN1C)c1ccccc1CC3 (relative stereo) [Example 32, (3,12b-trans)-3-ethyl-2-methyl-1,2,3,7,8,12b-hexahydrobenzo[6,7]-cyclohepta[1,2,3-de]isoquinoline-5,6-diol hydrobromide] showed an ED50 [1] of 21 ± 1.6 mg/kg and an ED50 [2] of 4.2 ± 0.4 mg/kg.

Molecule CN1C[C@H]2c3ccccc3CCc3c(O)c(O)cc(c32)[C@@H]1Cc1ccccc1 (relative stereo) [Example 33, (3,12b-trans)-2-methyl-3-(phenylmethyl)-1,2,3,7,8,12b-hexahydrobenzo[6,7]-cyclohepta[1,2,3-de]isoquinoline-5,6-diol hydrobromide] has an ED50 [1] of 9.2 ± 7.2 mg/kg and an ED50 [2] of 2 ± 0.2 mg/kg.

For CC[C@H]1c2c(O)c(OC)cc3c2[C@@H](CN1C)c1ccccc1CC3 (relative stereo) [Example 44, (3,12b-trans)-3-ethyl-5-methoxy-2-methyl-1,2,3,7,8,12b-hexahydrobenzo[6,7]-cyclohepta[1,2,3-de]isoquinolin-4-ol], the “ITIT, ED50 (dose which caused a 50% inhibition of tremorine induced tremors)” value [1] was 6.8 ± 2.0 mg/kg, i.p and the “CAR, ED50 (dose which caused a 50% failure in avoidance response)” value [2] was 3.0 ± 0.8 mg/kg, i.p.

For Br.CC1c2c(O)c(O)cc3c2C(CN1C)c1ccccc1CC3 (stereo not drawn) [Example 22, (3,12b-trans)-2,3-dimethyl-1,2,3,7,8,12b-hexahydrobenzo[6,7]cyclohepta[1,2,3-de]isoquinoline-4,5-diol hydrobromide], the “ITIT, ED50 (dose which caused a 50% inhibition of tremorine induced tremors)” value [1] was 13 ± 10.4 mg/kg, i.p and the “CAR, ED50 (dose which caused a 50% failure in avoidance response)” value [2] was 4.4 ± 2.0 mg/kg, i.p.

For Br.CCCC1c2c(O)c(O)cc3c2C(CN1C)c1ccccc1CC3 (stereo not drawn) [Example 24, (3,12b-trans)-2-methyl-3-propyl-1,2,3,7,8,12b-hexahydrobenzo[6,7]cyclohepta[1,2,3-de]isoquinoline-4,5-diol hydrobromide], the “ITIT, ED50 (dose which caused a 50% inhibition of tremorine induced tremors)” value [1] was 11 ± 4.3 mg/kg, i.p and the “CAR, ED50 (dose which caused a 50% failure in avoidance response)” value [2] was 4.4 ± 1.4 mg/kg, i.p.

In the case of Br.CC(C)C1c2c(O)c(O)cc3c2C(CN1C)c1ccccc1CC3 (stereo not drawn) [Example 25, (3,12b-trans)-2-methyl-3-(1-methylethyl)-1,2,3,7,8,12b-hexahydrobenzo[6,7]cyclohepta[1,2,3-de]isoquinoline-4,5-diol hydrobromide], the “ITIT, ED50 (dose which caused a 50% inhibition of tremorine induced tremors)” value [1] is reported as 17.5 ± 6.0 mg/kg, i.p and the “CAR, ED50 (dose which caused a 50% failure in avoidance response)” value [2] is reported as 2.4 ± 0.6 mg/kg, i.p.

With Br.CN1CC2c3ccccc3CCc3cc(O)c(O)c(c32)C1Cc1ccccc1 (stereo not drawn) [Example 26, (3,12b-trans)-2-metyl-3-(phenylmethyl)-1,2,3,7,8,12b-hexahydrobenzo[6,7]cyclohepta[1,2,3-de]isoquinoline-4,5-diol hydrobromide] the “ITIT, ED50 (dose which caused a 50% inhibition of tremorine induced tremors)” value [1] was 22 ± 5.7 mg/kg, i.p and the “CAR, ED50 (dose which caused a 50% failure in avoidance response)” value [2] was 1.6 ± 0.3 mg/kg, i.p.

In the case of COc1cc2c3c(c1O)C(Cc1ccccc1)N(C)CC3c1ccccc1CC2 (stereo not drawn) [Example 37, (3,12b-trans)-5-Methoxy-2-methyl-3-(phenylmethyl)-1,2,3,7,8,12b-hexahydrobenzo[6,7]-cyclohepta[1,2,3-de]isoquinolin-4-ol], the “ITIT, ED50 (dose which caused a 50% inhibition of tremorine induced tremors)” value [1] is reported as 8.2 ± 2.4 mg/kg, i.p and the “CAR, ED50 (dose which caused a 50% failure in avoidance response)” value [2] is reported as 5.4 ± 1.8 mg/kg, i.p.

In the case of CN1CCN(C2=Nc3cc(Cl)ccc3Nc3ccccc32)CC1 [clozapine], the “neuroleptic action without the extrapyramidal side effects (in words)” value [3] is listed as “have shown this unusual pharmacological profile”.
